Experimental data reported in patent US12729221B2, “Anti-inflammatory peptide and use thereof” (MITO QUEST CO., LTD., priority 2020, dated 2026).
Where no end group is shown, it is not given here.

Tests used:
interferon-beta (IFN-b) = test: polyIC-induced IFN-b expression in MLE-12 cells, ELISA; format: cell-based, mouse; conditions: 5 mg/ml polyIC, 16 hours; for expression level of IFN-b: vs control group treated only with polyIC
Method: Specifically, polyinosinic:polycytidylic acid (polyIC), which is a synthetic ribonucleic acid known to be associated with viral infection among the PAMPs and promotes the production of interferon and is analogous to an RNA virus gene, was used to induce a viral infection response. First, a serum-free cell culture medium containing 5 mg/ml polyIC and MQP-15, MQP-23, MQP-31, MQP-37, MQP-Y9 or MQP-T234 was treated with 1×10^5 cells of a mouse lung epithelial cell line (MLE-12) for 16 hours. Then, the supernatant was obtained and the expression level of interferon-beta (IFN-b) was checked by enzyme-linked immunosorbent assay (ELISA).
(§1) Specifically, LPS and ATP were used to induce an inflammasome response caused by bacterial infection, and polyIC was used to induce an inflammatory response caused by viral infection. First, 1 mg/ml LPS and 5 mM or 1 mM novel alanine-substituted peptide were mixed in a serum-free cell culture medium, followed by treatment with 1×10^5 cells of IC21. Thereafter, 5 mM ATP and 5 mM or 1 mM novel alanine-substituted peptide were mixed in a serum-free cell culture medium and treated for 30 minutes. Then, the supernatant was obtained and the expression level of IL-1b was checked by ELISA. Also, 5 mg/ml polyIC and 25 mM or 2 mM novel alanine-substituted peptide were mixed in a serum-free cell culture medium, followed by treatment with 1×10^5 cells of MLE-12 for 16 hours. Thereafter, the supernatant was obtained and the expression level of IFN-b was checked by ELISA.
as §1, with “2” for “5 mM or 1”, “amino acid-substituted” for “alanine-substituted”, “and” for “and 25 mM or”
Specifically, polyIC was used to induce a viral infection response. First, a serum-free cell culture medium containing 5 mg/ml polyIC and MQP-37, MQP-37A6, MQP-37D6W, MQP-37D6Y, MQP-37D6H, MQP-37D6K, MQP-37D6R or MQP-37D6V was treated with 1×10^5 cells of MLE-12 for 16 hours. Then, the supernatant was obtained and the expression level of IFN-b was checked by ELISA.

IC21 = test: XTT cytotoxicity test; format: cell-based, mouse; conditions: at a concentration of 10 mM; FIGS. 4-B and 4-C
Method: Specifically, in order to check the cytotoxicity of the peptides, the XTT test method for measuring the activity of mitochondria in cells was used. First, […] 16 hours, followed by XTT assay for 1 hour to measure the amount of water-soluble formazan produced by reduction by dehydrogenase in the mitochondria.

[1] = test system: interleukin-1beta (IL-1b); test: IL-1b expression induced by LPS, OMV or LPS and nigericin in IC21, ELISA; format: cell-based, mouse; conditions: 1 mg/ml LPS 4 hours, 5 mM nigericin 1 hour, FIG. 5B-D
Method: Specifically, LPS (lipopolysaccharide) and Gram-negative bacteria-derived outer membrane vesicle (OMV) were used as endotoxins to induce the inflammasome response caused by bacterial infection. First, 5 mM MQP-15, MQP-23, MQP-31 or MQP-37 was added to a serum-free cell culture medium containing 0.1 mg/ml LPS or OMV, followed by treatment with 1×10^5 cells of IC21 for 6 hours. Also, MQP-37 or MQP-Y9 was added to a serum-free cell culture medium containing 1 mg/ml LPS and 5 mM nigericin, followed by treatment for 5 hours (LPS treatment-4 hours; nigericin treatment-1 hour). Then, the supernatant was obtained and the expression level of interleukin-1beta (IL-1b) was checked by ELISA, and the cells were lysed and subjected to SDS-PAGE, and the inflammasome factors were analyzed by the Western blot.

interleukin-6 (IL-6) = test: LPS-induced IL-6 expression in IC21, ELISA; format: cell-based, mouse; conditions: 0.1 mg/ml LPS, 6 hours
Method: Specifically, LPS was used to induce an inflammatory response caused by bacterial infection. First, MQP-15, MQP-23, MQP-31, MQP-37 or MQP-Y9 was added to a serum-free cell culture medium containing 0.1 mg/ml LPS, followed by treatment with 1×10^5 cells of IC21 for 6 hours. Then, the supernatant was obtained and the expression levels of interleukin-6 (IL-6) and a tumor necrosis factor-alpha (TNF-a) were checked by ELISA.

NF-κB = test: LPS-induced phosphorylation of NF-kB in IC21, Western blot; format: cell-based, mouse; conditions: 5 mM peptide, 10 ng/ml endotoxin, 6 hours, vs control treated with LPS only
From the text: Specifically, LPS was used to induce an immune activation response caused by bacterial infection, and the phosphorylation of nuclear factor kappa-light-chain-enhancer of activated B cells (NF-kB) was checked to identify the mechanism of the immune activation response. […] Thereafter, the cells were washed with a PBS solution and then lysed with a RIPA buffer, and the supernatant was separated. In order to measure the change in the phosphorylation amount of NF-κB protein with the separated supernatant, the Western blot was performed as in Example 2.

MLE-12 = test: Cytotoxicity at maximum concentration (Example 13); format: cell-based, mouse; conditions: at the maximum concentration in the experiment; FIG. 13B-F
MAVS proteins = target: T1, MAVS proteins (Mus musculus, UniProt Q8VCF0); test: MAVS aggregation induced by LPS and nigericin, Western blot of isolated mitochondria; format: cell-based; conditions: 5 mM peptide; IC21; 1 mg/ml LPS 4 hours then 5 mM nigericin 1 hour; vs control group treated with endotoxin and nigericin
T1 construct: mitochondria in IC21 were isolated with a hypotonic buffer and centrifugation; endogenous in cells; host or cells: IC21 mouse peritoneal macrophage cell line
T1 sequence (Q8VCF0 1-503): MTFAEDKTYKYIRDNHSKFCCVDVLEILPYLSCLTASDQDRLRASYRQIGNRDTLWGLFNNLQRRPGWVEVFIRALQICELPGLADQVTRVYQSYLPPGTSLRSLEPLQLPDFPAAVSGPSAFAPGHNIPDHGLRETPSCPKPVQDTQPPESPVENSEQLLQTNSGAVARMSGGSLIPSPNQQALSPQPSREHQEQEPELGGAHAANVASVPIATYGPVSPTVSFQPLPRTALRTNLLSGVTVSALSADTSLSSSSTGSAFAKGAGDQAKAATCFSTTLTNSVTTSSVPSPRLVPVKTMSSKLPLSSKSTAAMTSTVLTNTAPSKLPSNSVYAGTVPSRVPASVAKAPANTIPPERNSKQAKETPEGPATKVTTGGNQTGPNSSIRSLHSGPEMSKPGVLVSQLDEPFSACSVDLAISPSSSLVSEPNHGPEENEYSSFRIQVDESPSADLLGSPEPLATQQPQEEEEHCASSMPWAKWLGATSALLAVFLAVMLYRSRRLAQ
Method: Specifically, the aggregation of MAVS proteins was induced by stimulation with pathogen-associated molecular patterns (PAMPs), and endotoxin (lipopolysaccharide (LPS)) and nigericin were used as the PAMPs. First, 5 mM MQP-15, MQP-23, MQP-31 or MQP-37 was added to a serum-free cell culture medium containing 1 mg/ml LPS, followed by treatment with 1×10^5 cells of a mouse peritoneal macrophage cell line (IC21) for 4 hours. Then, 5 mM MQP-15, MQP-23, MQP-31 or MQP-37 was added to a serum-free cell culture medium containing 5 mM nigericin, followed by treatment with IC21 for additional 1 hour. Thereafter, mitochondria in IC21 were isolated with a hypotonic buffer and centrifugation. Then, in order to check the result of MAVS aggregation by the Western blot, a sample was prepared using a semi-denaturing detergent in the isolated mitochondria and electrophoresis was performed. After the electrophoretically isolated mitochondrial protein was transferred to a polyvinylidene difluoride (PVDF) membrane, a primary antibody recognizing the MAVS proteins and a secondary antibody recognizing the primary antibody were additionally treated. Thereafter, the aggregation of MAVS proteins was checked by inducing a chemiluminescence reaction of the secondary antibody.

IL-1b = test: LPS/ATP-induced IL-1b expression (inflammasome response) in IC21, ELISA; format: cell-based, mouse; conditions: 1 mg/ml LPS, 5 mM ATP 30 minutes, 2 mM peptide
Method: as §1
as §1, with “2” for “5 mM or 1”, “amino acid-substituted” for “alanine-substituted”, “and” for “and 25 mM or”
Specifically, LPS was used to induce an inflammatory response caused by bacterial infection. First, MQP-37 or MQP-37A6 was added to a serum-free cell culture medium containing 0.1 mg/ml LPS, followed by treatment with 1×10^5 cells of IC21 for 6 hours. Then, the supernatant was obtained and the expression level of IL-6 was checked by ELISA. Also, the Western blot was performed and the phosphorylation of NF-κB was checked to identify the mechanism of immune activation response. Thereafter, LPS and ATP were used to induce an inflammasome response caused by bacterial infection, LPS and ATP were used. First, 1 mg/ml LPS and L- or D-MQP-37 and MQP-37A6 were mixed in a serum-free cell culture medium and treated with 1×10^5 cells of IC21. Then, 5 mM ATP and MQP-37 or MQP-37A6 were mixed in a serum-free cell culture medium and treated for 30 minutes. Thereafter, the supernatant was obtained and the expression level of IL-1b was checked by ELISA.

KRLLFWIFIK [MQP-Y9]
expression level of IFN-b with various concentrations of peptide (interferon-beta (IFN-b)): decreased in a concentration-dependent manner | expression level of IFN-b (interferon-beta (IFN-b)): decreased | cytotoxicity (XTT) (IC21): did not exhibit any cytotoxicity | production of IL-1b after LPS and nigericin treatment [1]: inhibited in an MQP-Y9 concentration-dependent manner | expression level of IL-6 after LPS treatment with various concentrations of peptide (interleukin-6 (IL-6)): decreased in a concentration-dependent manner | phosphorylation amount of NF-κB (NF-κB): significantly decreased

SLVLAYARW [MQP-37D6Y]
cytotoxicity (MLE-12): did not show cytotoxicity

MQP-23: novel peptide complementary to a MAVS domain sequence (hydropathic complementarity); sequence not tied to the code in the text (LQHLEDGM; MQP-23)
aggregation of MAVS proteins (MAVS proteins): decreased | expression level of IFN-b (interferon-beta (IFN-b)): decreased

MQP-31: novel peptide complementary to a MAVS domain sequence (hydropathic complementarity); sequence not tied to the code in the text (DGTECR; MQP-31)
aggregation of MAVS proteins (MAVS proteins): decreased | expression level of IFN-b (interferon-beta (IFN-b)): decreased

MQP-37A1: prepared by substituting the first amino acid of MQP-37A6 with alanine (ALVLADARW; MQP-37A1)
inflammasome response caused by bacterial infection (IL-1b), first amino acid substituted (IL-1b; FIG. 10A-A): most effectively

MQP-37D6H: MQP-37 whose sixth amino acid (aspartic acid) is substituted with histidine (SLVLAHARW; MQP-37D6H)
inflammatory response caused by viral infection (IFN-b) (interferon-beta (IFN-b); FIGS. 13A-C and 13A-D): inhibited the inflammatory response caused by viral infection in a concentration-dependent manner | inflammasome response caused by bacterial infection (IL-1b), sixth amino acid of MQP-37 substituted (IL-1b; FIG. 10A-B): effectively

MQP-15: novel peptide complementary to a MAVS domain sequence (hydropathic complementarity); sequence not tied to the code in the text (LKSLKTLH; MQP-15)
aggregation of MAVS proteins (MAVS proteins): decreased | expression level of IFN-b (interferon-beta (IFN-b)): decreased

SLVLADARW [MQP-37]
cytotoxicity (XTT) (IC21): did not exhibit any cytotoxicity

MQP-37D6W: MQP-37 whose sixth amino acid (aspartic acid) is substituted with tryptophan (SLVLAWARW; MQP-37D6W)
inflammatory response caused by viral infection (IFN-b), sixth amino acid of MQP-37 substituted, compared to the original peptide (interferon-beta (IFN-b); 2 mM peptide, FIG. 10B-C): effectively inhibited even at a low peptide concentration | inhibiting the inflammatory response caused by viral infection (IFN-b), compared to MQP-37 and MQP-37A6 (interferon-beta (IFN-b); concentration-dependent, FIGS. 13A-A and 13A-B): outstanding effect

MQP-T234: novel anti-inflammatory peptide prepared in Example 1 (KVGDRARWGSRS; MQP-T234)
expression level of IFN-b (interferon-beta (IFN-b)): decreased
